The target of experiment [1] is T1, human α2C‐adrenoceptor (Homo sapiens, UniProt P18825).
T1 sequence (P18825 1-462): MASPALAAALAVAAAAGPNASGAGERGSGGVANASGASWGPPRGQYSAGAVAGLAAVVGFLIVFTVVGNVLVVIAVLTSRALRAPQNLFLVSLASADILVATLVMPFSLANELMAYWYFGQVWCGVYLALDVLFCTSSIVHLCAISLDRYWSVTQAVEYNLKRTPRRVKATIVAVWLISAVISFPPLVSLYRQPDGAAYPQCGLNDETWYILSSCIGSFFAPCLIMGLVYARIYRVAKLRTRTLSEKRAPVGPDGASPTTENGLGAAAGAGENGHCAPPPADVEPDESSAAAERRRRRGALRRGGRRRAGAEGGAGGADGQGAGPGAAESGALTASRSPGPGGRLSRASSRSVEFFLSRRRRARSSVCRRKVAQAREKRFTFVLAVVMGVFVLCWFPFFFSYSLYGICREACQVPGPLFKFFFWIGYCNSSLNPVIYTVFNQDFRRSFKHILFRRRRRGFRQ
The experiment is described as follows: 3H‐rauwolscine whole cell binding in CHO‐α2C cells. Also noted: expressed in transfected cells; host or cells: CHO-K1 with CRE-SPAP reporter. Conditions: for Log KD / Kd: 3H‐rauwolscine whole cell binding.

The target in experiment [2] is T1, human α2C‐adrenoceptor. Nature of the experiment: ERK1/2‐phosphorylation in CHO‐α2C cells. It is filed as cell-based. On the set-up: expressed in transfected cells; host or cells: CHO-K1 with CRE-SPAP reporter. Conditions: for Log EC50, ERK1/2‐phosphorylation: given as negative log EC50, mean ± SEM.
Experiment [3] has as its target T1, human α2C‐adrenoceptor.
The target in experiment [4] is T2, human α2A‐adrenoceptor (Homo sapiens, UniProt P08913).
T2 sequence (P08913 1-465): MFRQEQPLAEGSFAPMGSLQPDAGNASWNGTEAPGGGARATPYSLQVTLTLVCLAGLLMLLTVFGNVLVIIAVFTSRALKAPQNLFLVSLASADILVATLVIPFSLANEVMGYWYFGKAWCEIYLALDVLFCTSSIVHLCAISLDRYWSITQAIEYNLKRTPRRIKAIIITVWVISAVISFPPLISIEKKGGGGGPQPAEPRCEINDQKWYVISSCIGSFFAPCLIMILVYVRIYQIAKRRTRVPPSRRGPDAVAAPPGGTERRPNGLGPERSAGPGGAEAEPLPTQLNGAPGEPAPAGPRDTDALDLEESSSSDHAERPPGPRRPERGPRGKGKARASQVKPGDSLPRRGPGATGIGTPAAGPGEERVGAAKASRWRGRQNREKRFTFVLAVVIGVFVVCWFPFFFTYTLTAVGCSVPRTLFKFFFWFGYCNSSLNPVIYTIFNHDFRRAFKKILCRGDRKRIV

Experiment [5] has as its target T2, human α2A‐adrenoceptor. Nature of the experiment: ERK1/2‐phosphorylation in CHO‐α2A cells. As to conditions: CHO‐α2A. It is filed as cell-based. On the set-up: expressed in transfected cells; host or cells: CHO-K1 with CRE-SPAP reporter.
For experiment [6], the target named is T2, human α2A‐adrenoceptor. Nature of the experiment: 3H‐rauwolscine whole cell binding in CHO‐α2A cells. Also noted: expressed in transfected cells; host or cells: CHO-K1 with CRE-SPAP reporter.
Where [7] appears, read: CHO‐α2C cells, given as negative log KD, mean only (SEM in Table 4).
Setting [8] is: CHO‐α2C cells, maximum response compared to 10 μM PDBu, mean ± SEM.
[9] abbreviates: CHO‐α2C cells, % inhibition from the 3 μM forskolin control, mean ± SEM.
The mark [10] stands for this setting: CHO‐α2C cells, CRE‐SPAP production in the absence of forskolin.
[11] abbreviates: CHO‐α2C cells, inhibition of 3 μM forskolin‐stimulated CRE‐SPAP production, given as negative log IC50, mean ± SEM.

This note sets out measurements from publication PMC9471048, “The signaling and selectivity of α‐adrenoceptor agonists for the human α2A, α2B and α2C‐adrenoceptors and comparison with human α1 and β‐adrenoceptors” (Pharmacology Research & Perspectives, 2022).

Read-outs that look alike come from different tables or passages of the source.

Regarding `Cc1sc(C)c2c1CCC=C2c1cnc[nH]1.O=C(O)/C=C\C(=O)O` [T‐CG 1000], the “Log KD” value at human α2C‐adrenoceptor [1] (setting [7]) is listed as −6.75. In addition, the “% 10 μM PDBu, ERK1/2‐phosphorylation” value on human α2C‐adrenoceptor [2] (setting [8]) was determined as 87.5 ± 14.2%. Further, the “Log EC50, ERK1/2‐phosphorylation” value on human α2C‐adrenoceptor [2] (CHO‐α2C cells) is on record as −7.05 ± 0.14. For the same molecule, the “Log efficacy ratio (KD/IC50)” value at human α2C‐adrenoceptor [3] is given as −0.63. Besides, the “% inhibition, CRE‐SPAP (with forskolin)” value at human α2C‐adrenoceptor [3] (setting [9]) amounted to 50.2 ± 5.1%. Further, the “Log EC50 (Gs), CRE‐SPAP (without forskolin)” value (“Log EC50 … (without forskolin)” for short) on human α2C‐adrenoceptor [3] (setting [10]) is listed as “No response”. Further, on human α2C‐adrenoceptor [3] (setting [11]), the “Log IC50 (Gi), CRE‐SPAP (with forskolin)” value is −6.12 ± 0.05.

In the case of `CCN1CCc2nc(N)oc2CC1` [BHT933], on human α2C‐adrenoceptor [1] (setting [7]), the “Log KD” value was −5.32. In addition, the “% 10 μM PDBu, ERK1/2‐phosphorylation” value at human α2C‐adrenoceptor [2] (setting [8]) was determined as 150.0 ± 19.7%. The “Log EC50, ERK1/2‐phosphorylation” value on human α2C‐adrenoceptor [2] (CHO‐α2C cells) is given as −6.63 ± 0.18. Moreover, the “Log efficacy ratio (KD/IC50)” value on human α2C‐adrenoceptor [3] is 0.62. Moreover, at human α2C‐adrenoceptor [3] (setting [9]), the “% inhibition, CRE‐SPAP (with forskolin)” value came to 86.0 ± 4.6%. Also, the “Log EC50 … (without forskolin)” value at human α2C‐adrenoceptor [3] (setting [10]) was “No response”. At human α2C‐adrenoceptor [3] (setting [11]), the “Log IC50 (Gi), CRE‐SPAP (with forskolin)” value is on record as −5.94 ± 0.08.

`COC(=O)[C@@H]1[C@H]2C[C@H]3c4[nH]c5ccccc5c4CCN3C[C@@H]2CC[C@@H]1O` [yohimbine]: at human α2A‐adrenoceptor [4], the “Schild slope (Gi), dexmedetomidine as agonist” value was determined as 1.11 ± 0.07; the “Schild slope, inhibitory (Gi) component” value is on record as 1.00 ± 0.08; the “Schild slope, stimulatory (Gs) component” value was found to be 0.92 ± 0.11.

`CC(C)NCC(O)c1ccc(O)c(O)c1` (stereo not shown) [Isoprenaline]: the “% 10 μM PDBu, ERK1/2‐phosphorylation” value on human α2C‐adrenoceptor [2] came out at 130.7 ± 11.1%. Besides, the “% inhibition, CRE‐SPAP (with forskolin)” value at human α2C‐adrenoceptor [3] was 95.0 ± 5.2%.

For the molecule `COc1ccc(OC)c(C(O)CNC(=O)CN)c1` (stereo not shown) [Midodrine], at human α2C‐adrenoceptor [2] (CHO‐α2C cells, response at 100 μM ligand (no EC50 given) compared to 10 μM PDBu), the “% 10 μM PDBu, ERK1/2‐phosphorylation” value was 80.9 ± 15.6%. Further, the “% 10 μM PDBu, ERK1/2‐phosphorylation, response at 100 μM agonist” value on human α2A‐adrenoceptor [5] (response at 100 μM) is listed as 101.0 ± 15.5%.

For `COc1ccc(CC(C)NCC(O)c2ccc(O)c(NC=O)c2)cc1` (stereo not shown) [Formoterol], the IC50 is more than 100 µM on human α2C‐adrenoceptor [1]; more than 100 µM at human α2C‐adrenoceptor [1] (read-out: IC50 in binding, CHO‐α2C); more than 100 µM on human α2A‐adrenoceptor [6]; more than 100 µM at human α2A‐adrenoceptor [6] (read-out: IC50 in binding, CHO‐α2A). Besides, the “Log EC50 … (without forskolin)” value on human α2A‐adrenoceptor [4] and on human α2C‐adrenoceptor [3] was “No response” throughout. Further, the “Log IC50 (Gi), CRE‐SPAP (with forskolin)” value on human α2A‐adrenoceptor [4] and on human α2C‐adrenoceptor [3] was “No response” in each case.

Consider `NC[C@H](O)c1ccc(O)c(O)c1` [Noradrenaline], for which the Kd on human α2C‐adrenoceptor [1] (living cells, negative log KD, mean ± SEM, read-out: Log KD, CHO‐α2C (converted)) was 32.4 µM; on human α2C‐adrenoceptor [1] (CHO‐α2C cells, given as negative log KD, mean only (SEM in Table 4), read-out: Log KD (converted)) it was 32.4 µM. In addition, the “% 3 μM forskolin, CRE‐SPAP (without forskolin)” value on human α2A‐adrenoceptor [4] (CHO‐α2A (cell line 1), maximum response compared to 3 μM forskolin) came to 171.5 ± 11.1%. The “% 10 μM PDBu, ERK1/2‐phosphorylation” value came out at 142.3 ± 10.7% at human α2C‐adrenoceptor [2] (setting [8]) and 121.9 ± 6.3% on human α2A‐adrenoceptor [5] (maximum response compared to 10 μM PDBu). For the same molecule, the 50% inhibitory concentration (IC50) on human α2C‐adrenoceptor [3] is 0.309 µM. In addition, the “% inhibition, CRE‐SPAP (with forskolin)” value on human α2C‐adrenoceptor [3] (setting [9]) is 83.0 ± 3.1%. The “Log EC50 … (without forskolin)” value at human α2C‐adrenoceptor [3] (setting [10]) is “No response”.

As usually defined, the IC50 is the concentration at which inhibition is half-maximal. Usually Kd stands for the equilibrium constant for the complex coming apart.
